# “Also recorded” adds a separate entry of the source. Where two headings read alike, the source gives them in different places. Starred links: 1 amine or outer side, 2 acyl side, 3 side chain; linkers in the order of their positions; H or OH if unused. Positions of bridges follow the written chain, without caps; N, C: chain ends. Non-standard residues stand in square brackets, D forms with d. Residues, ends and D or L forms follow the SMILES beside them. Chains are numbered I, II in the order given. *: point of attachment. Fluorescein(5-Mal) = O=C1OC2(c3ccc(O)cc3Oc3cc(O)ccc32)c2ccc(N3C(=O)CC(*)C3=O)cc21; Gly(N-piperonyl) = O=C(O)CNCc1ccc2c(c1)OCO2; X1 = CC(c1ccccc1)N(CC(=O)[*:2])[*:1]; Nrpe = C[C@@H](NCC(=O)O)c1ccccc1; Nleu = CC(C)CNCC(=O)O; Nlys = NCCCCNCC(=O)O; Ahx = NCCCCCC(=O)O; βAla = NCCC(=O)O
# Key:
# HUVEC [1] = test: HUVEC proliferation assay; assay type: cell-based, human; settings: 1.3 nM VEGF
# Procedure: HUVEC proliferation assay. HUVEC cells (ScienceCell) were harvested using enzyme free cell dissociation buffer and resuspended in ECM (5% FBS). Cells were plated (2000 cells/well) on white, clear bottom 96-well plates coated with gelatin. Cells were grown for 24 h at 37° C. […] The treatment was repeated with fresh media (0.2% FBS) and reagents after two days. After four days, viable cells were determined using CellTiter-Glo® Luminescent Cell Viability Assay kit (Promega), and the luminescent signal was read by the plate reader.
# HUVEC [2] = test: HUVEC tube formation assay; assay type: cell-based, human; settings: 1.3 nM VEGF
# Procedure: HUVEC tube formation assay. Endothelial cell medium gel (ECM gel) was thawed overnight at 4° C. refrigerator and added 50 μl to each well of pre-chilled white, clear bottom 96-well plate. Incubated for 30 min to facilitate the gel formation. […] 150 μl of these treated cell suspension (20,000 cells) was added per well and incubated at 37° C. and visualized tube formation under the light microscope after 16 hours (10× magnification).
# [3] = test system: A673 (human Ewing's sarcoma) tumors; settings: mouse, in vivo
# Procedure: Cell Culture. The human Ewing's sarcoma cell line A673 (CRL-1598, ATCC, Manassas, Va.) was grown as a monolayer in Dulbeco's minimal essential medium (Invitrogen, Carlsbad, Calif.) supplemented with 10% heat-inactivated fetal calf serum (Atlanta Biologicals, Lawrenceville, Ga.). Cells were maintained at 37° C. in a mixture of 5% CO2 and 95% air. Cell viability was monitored by Trypan Blue (Invitrogen, Carlsbad, Calif.) exclusion after trypsinization. Cell fingerprinting was performed by Dr. Luc Girard at the McDermott Center at UT Southwestern to verify identity of cells and the cells were also tested and found to be negative for Mycoplasma prior to use.
# Tumor study. Tumors were established in the right flank of 6-8 week old female athymic nu/nu mice (NCl, Frederick, Md.) by subcutaneous injection of 2.5 million cells in a volume of 50 μl PBS. On the same day, an Alzet subcutaneous pump (DURECT Corporation, Cupertino Calif.) was implanted per manufacturer's recommendations. […] Pumps were weighed empty and again when filled to ensure correct loading. Based on the mean pumping rate (0.2 μl/hr), these pumps were predicted to elute for 21 days. Implantation of the pump was performed by making a small incision on the back of the anesthetized animal and subsequently using a hemostat to create a subcutaneous pocket in which to place the pump. The incision was closed with a 5-0 prolene (Ethicon, Somerville, N.J.). Animal weights and tumor volumes (calipers) were recorded twice weekly. Volumes were calculated using the formula D*d^2*0.52 where D is the long diameter and d is the perpendicular short diameter.
# Immunohistochemistry. Formalin-fixed tissues were embedded in paraffin, sectioned and stained with hematoxylin and eosin by the Molecular Histopathology Laboratory at UT Southwestern. H&E photographs were taken at a total magnification of 40× on a Nikon DXM 1200 digital camera (Melville, N.Y.). For immunohistochemical staining, slides were deparaffinized by heating at 60° C. for one hour followed by immersion in xylenes. Tissue was rehydrated by sequential immersion in ethanols. Endogenous peroxidase activity was blocked with 3% H2O2 in methanol. Antigen retrieval was performed using pH 6.0 citrate buffer (LabVision, Freemont, Calif.) for 15 minutes in a pressure cooker. […] The primary antibody was detected by incubating with a biotinylated donkey anti-rat IgG (Jackson ImmunoResearch, Westgrove, Pa.) followed by the ABC detection kit (Vector laboratories, Burlingame, Calif.). […] Microvessel density (MVD) was determined by manually counting the number of blood vessels in visible in the microscopic field of view (total magnification, 100×). […]
# VEGFR2 [4] = target: T1, VEGFR2 (Homo sapiens, UniProt P35968); test: GU40C4 cell surface binding assay (biotinylated peptoid, streptavidin quantum dots); assay type: cell-based; set-up: allow the library to be screened against the full-length receptor in as natural an environment as possible; host or cells: PAE/KDR (porcine aortic endothelial cells expressing human KDR); settings: for binding to cells with or without native VEGFR2: HeLa, HEK-293, HFF, MCF-7, only MCF-7 expresses VEGFR2
# Procedure: Different types of cells (PAE/KDR, PAE, Hela, HEK-293, MCF-7, HFF) were grown on each well of chamber slides (Nalge Nunc International) (10,000 cells/chamber) overnight. Washed, and fixed cells with 3.7% formaldehyde and blocked with Startingblock blocking buffer. […] After the final washing, cells were mounted by ProLong® Gold antifade reagent with DAPI (Invitrogen) and visualized under DAPI filter of the fluorescence microscope.
# Specificity of the GU40C4-VEGFR2 interaction on the cell surface. […] The DAPI-stained nuclei are shown in blue. […] In addition, the red halo was not observed when the VEGFR2-expressing PAE/KDR cells were incubated with only the streptavidin-coated red quantum dots without addition of the biotinylated peptoid (FIG. 5C).
# An important question is whether the peptoid is able to recognize VEGFR2 on the surface of cells when the receptor is expressed at native levels. To address this question, the inventors incubated biotinylated CU40C4 and streptavidin-coated red quantum dots with four different cell lines: HeLa, HEK-293, human foreskin fibroblast (HFF) and MCF-7. Of these, only MCF-7 expresses significant quantities of the VEGFR2. […] The inventors conclude from these experiments that the dimeric peptoid is highly specific for the VEGFR2 and can recognize the receptor even when it is expressed at native levels on the surface of a breast cancer cell.
# Target sequence in this assay (P35968 20-1356): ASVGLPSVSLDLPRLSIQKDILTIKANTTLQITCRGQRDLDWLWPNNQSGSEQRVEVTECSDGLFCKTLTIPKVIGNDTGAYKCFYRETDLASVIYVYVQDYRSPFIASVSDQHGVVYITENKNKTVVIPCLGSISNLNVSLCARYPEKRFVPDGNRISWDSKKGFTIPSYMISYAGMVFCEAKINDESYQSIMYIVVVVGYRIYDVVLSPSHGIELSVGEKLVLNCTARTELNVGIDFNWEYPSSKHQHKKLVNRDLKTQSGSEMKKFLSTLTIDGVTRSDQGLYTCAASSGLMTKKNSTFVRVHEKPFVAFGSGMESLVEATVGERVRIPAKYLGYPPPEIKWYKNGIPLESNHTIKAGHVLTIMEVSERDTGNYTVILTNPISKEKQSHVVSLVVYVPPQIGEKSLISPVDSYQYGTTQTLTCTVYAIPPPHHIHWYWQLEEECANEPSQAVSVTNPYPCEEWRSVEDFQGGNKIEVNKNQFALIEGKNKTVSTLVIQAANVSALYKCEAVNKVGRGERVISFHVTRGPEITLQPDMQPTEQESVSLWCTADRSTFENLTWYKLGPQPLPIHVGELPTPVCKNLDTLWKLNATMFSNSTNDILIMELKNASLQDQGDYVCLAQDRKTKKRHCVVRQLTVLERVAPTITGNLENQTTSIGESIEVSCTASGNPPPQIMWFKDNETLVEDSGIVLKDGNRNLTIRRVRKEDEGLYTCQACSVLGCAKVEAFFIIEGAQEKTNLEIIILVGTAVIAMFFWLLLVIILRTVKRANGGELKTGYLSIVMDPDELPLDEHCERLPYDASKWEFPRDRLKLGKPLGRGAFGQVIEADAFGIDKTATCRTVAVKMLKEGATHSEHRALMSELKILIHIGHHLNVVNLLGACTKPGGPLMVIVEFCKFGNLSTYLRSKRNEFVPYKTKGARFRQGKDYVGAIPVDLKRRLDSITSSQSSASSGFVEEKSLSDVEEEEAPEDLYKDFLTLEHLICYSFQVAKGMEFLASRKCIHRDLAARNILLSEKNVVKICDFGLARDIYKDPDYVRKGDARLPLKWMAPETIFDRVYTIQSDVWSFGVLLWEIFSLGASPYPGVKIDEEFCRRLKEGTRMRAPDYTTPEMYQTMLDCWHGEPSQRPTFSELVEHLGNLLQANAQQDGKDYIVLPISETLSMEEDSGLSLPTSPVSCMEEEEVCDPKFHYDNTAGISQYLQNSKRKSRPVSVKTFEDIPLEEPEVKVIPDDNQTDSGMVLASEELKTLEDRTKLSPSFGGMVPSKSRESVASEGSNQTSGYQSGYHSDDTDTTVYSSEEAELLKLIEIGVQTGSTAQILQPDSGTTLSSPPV
# VEGFR2 [5] = target: T1, VEGFR2; test: VEGF-induced VEGFR2 autophosphorylation in PAE/KDR cells, Western blot; assay type: cell-based; set-up: allow the library to be screened against the full-length receptor in as natural an environment as possible; host or cells: PAE/KDR (porcine aortic endothelial cells expressing human KDR)
# Procedure: Western blots. Experiments were conducted using PAE/KDR cells that were grown on 6-well plates. […] The blots were probed with Phospho-VEGF receptor 2 (Tyr1175) (19A10) rabbit monoclonal or Total VEGFR2 primary antibodies (Cell signaling) and HRP-conjugated secondary antibody (BioRad).
# Functional characterization of the VEGFR2-binding peptoids. GU40C and GU40E were then tested for their ability to modulate VEGFR function. Of course, since the screen simply demanded binding of the peptoid to the receptor, it was not a given that this would be the case. […] Western blot analysis using phospho-VEGFR2-specific antibodies was then employed to monitor receptor activation.
# To do so, the inventors examined the effect of the peptoid on VEGF-induced VEGFR2 autophosphorylation by Western blotting, as described earlier.
# Target sequence in this assay (P35968 20-1356): as above
# CD105 = target: T2, CD105 (Homo sapiens, UniProt P17813); test: ELISA-like binding assay on immobilized CD105; settings: same ELISA-like assay
# T2 sequence (P17813 26-658): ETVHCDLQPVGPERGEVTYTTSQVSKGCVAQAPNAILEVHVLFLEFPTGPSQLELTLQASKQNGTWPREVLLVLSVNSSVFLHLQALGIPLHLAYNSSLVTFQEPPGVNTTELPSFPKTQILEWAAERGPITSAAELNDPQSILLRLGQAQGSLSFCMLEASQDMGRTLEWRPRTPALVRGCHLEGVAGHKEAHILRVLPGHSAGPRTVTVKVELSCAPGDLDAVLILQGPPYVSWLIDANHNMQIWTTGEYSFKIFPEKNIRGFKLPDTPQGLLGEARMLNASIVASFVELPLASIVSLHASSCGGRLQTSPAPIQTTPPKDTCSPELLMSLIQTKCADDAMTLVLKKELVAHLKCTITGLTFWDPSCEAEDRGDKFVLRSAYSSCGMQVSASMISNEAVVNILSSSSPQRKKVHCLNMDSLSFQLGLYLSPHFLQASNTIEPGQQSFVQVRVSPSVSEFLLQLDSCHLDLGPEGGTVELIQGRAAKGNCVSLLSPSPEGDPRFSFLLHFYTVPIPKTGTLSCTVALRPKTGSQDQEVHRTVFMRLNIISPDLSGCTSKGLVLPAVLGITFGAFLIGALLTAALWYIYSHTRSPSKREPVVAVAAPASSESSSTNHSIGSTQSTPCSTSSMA
# GST = test: ELISA-like binding assay on immobilized GST; settings: same ELISA-like assay
# VEGFR2 ECD = VEGFR2 ECD (Homo sapiens, UniProt P35968); test: Competitive binding assay against fluoresceinated GU40C; settings: increasing concentrations of unlabelled competitor
# Sequence of VEGFR2 ECD (P35968 20-764 limits assumed): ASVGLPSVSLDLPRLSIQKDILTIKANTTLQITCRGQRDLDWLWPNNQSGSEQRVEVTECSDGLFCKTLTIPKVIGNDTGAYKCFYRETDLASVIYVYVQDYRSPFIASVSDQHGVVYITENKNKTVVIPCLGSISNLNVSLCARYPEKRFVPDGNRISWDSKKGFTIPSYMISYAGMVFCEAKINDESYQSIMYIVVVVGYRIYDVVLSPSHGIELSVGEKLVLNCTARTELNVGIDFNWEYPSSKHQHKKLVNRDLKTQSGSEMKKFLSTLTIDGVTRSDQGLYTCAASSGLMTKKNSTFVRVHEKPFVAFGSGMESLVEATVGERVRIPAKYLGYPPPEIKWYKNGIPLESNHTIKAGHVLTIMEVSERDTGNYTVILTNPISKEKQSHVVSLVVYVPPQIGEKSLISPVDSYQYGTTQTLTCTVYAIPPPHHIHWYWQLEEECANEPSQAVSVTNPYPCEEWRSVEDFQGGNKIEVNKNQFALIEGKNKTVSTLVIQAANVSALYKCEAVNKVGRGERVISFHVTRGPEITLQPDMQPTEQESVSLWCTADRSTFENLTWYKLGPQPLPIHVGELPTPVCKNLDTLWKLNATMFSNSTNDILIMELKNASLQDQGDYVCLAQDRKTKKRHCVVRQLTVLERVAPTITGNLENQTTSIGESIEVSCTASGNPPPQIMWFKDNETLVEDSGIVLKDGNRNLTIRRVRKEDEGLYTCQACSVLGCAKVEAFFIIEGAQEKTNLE
# Description: FIGS. 17A-B. GU40C truncation study results. (FIG. 17A) Downward arrows show GU40C truncation positions (FIG. 17B) Competitive binding assay results; increasing concentrations of unlabelled GU40C and truncated derivatives were competed with a constant amount of fluoraceinated GU40C. Symbols represent; GU40C (□), 8-mer (▴), 7-mer (▾), 6-mer (⋄), 5-mer (∘), 4-mer (▪), control (x).
# To identify the main chain amides important for binding, the inventors synthesized five different truncated versions of GU40C, each containing all four of the N-terminal residues (FIG. 17A). Increasing concentrations of these truncated versions were competed with a constant amount of fluoresceinated GU40C for binding to the VEGR2 ECD. […] Elimination of the first C-terminal residue weakened binding about ten-fold (FIG. 17B). Further elimination of the next three C-terminal residues further diminished binding only slightly. However, deletion of the next residue essentially abolished binding of the peptoid to the VEGFR2 ECD.
# VEGFR2 [6] = target: T1, VEGFR2; test: ELISA-like binding assay, fluoresceinated peptoids on immobilized VEGFR2 extracellular domain; set-up: VEGFR2 extracellular domain (amino acids 1-764 fused to 6× histidine-tagged Fc of human IgG, via the peptide IEGRMD; R&D Systems); linker peptide IEGRMD (internal); Fc of human IgG (C); 6xHis (C); purchased R&D Systems; settings: for Kd: ELISA-like assay
# Procedure: ELISA based binding assay. White, clear bottom 96-well plates (Corning Inc.) were coated with of 1 μg/ml recombinant human VEGFR2 protein (R&D Systems) using the sensitizing buffer (0.621 g NaHCO3 & 0.275 g Na2CO3 dissolved on 100 ml of ddH2O, pH=9.5) overnight at 4° C. Washed with 3×200 μl of wash buffer 1×PBS with 0.05% Tween-20 and blocked with Startingblock blocking buffer (Pierce). Added 50 μl of serial dilutions of FITC labeled peptoids dissolved in Startingblock blocking buffer to each well & allowed to react for 1 h at room temperature. Washed with 5×200 μl of wash buffer 1×PBS with 0.05% Tween-20 and remaining fluorescence was measured at 520 nm using the plate reader.
# The isolated peptoids are VEGFR2 ligands. Two of the ‘hits’ from this screen, GU40C and GU40E (see FIG. 2) were resynthesized, both as free compounds and with C-terminal Cys (for C-terminal fluorescein tagging via maleimide chemistry), cleaved from the beads and purified to apparent homogeneity by reverse phase HPLC. […] The association of these peptoids with VEGFR2 was evaluated using an ELISA-like assay. A commercially available fusion protein containing the VEGFR2 extracellular domain (amino acids 1-764 fused to 6× histidine-tagged Fc of human IgG, via the peptide IEGRMD; R&D Systems) was plated into 96-well plates and then mixed with various concentrations of […] Fluorescein (FITC)-labeled peptoid. After washing away unbound peptoid, the remaining fluorescence emission signal was measured at 520 nm. In this assay purified VEGFR2 protein was used instead of the whole PAE/KDR cells that over express VEGFR2, in order to confirm these compounds were binding only to the receptor.
# Target sequence in this assay (P35968 20-764): as the sequence (P35968 20-764 limits assumed) above
smiles,measurement,setting,value
CC(C)CN(CC(=O)N(CCCCN)CC(=O)N(CC(=O)N(CC(=O)N(CCCCN)CC(=O)N(CC(=O)N(CCCCN)CC(=O)N(CCCCN)CC(=O)NCCCCCC(=O)NCCC(=O)N[C@@H](CCCCNC(=O)CN(CCCCN)C(=O)CN(CCCCN)C(=O)CN(CC(C)C)C(=O)CN(CCCCN)C(=O)CN(Cc1ccc2c(c1)OCO2)C(=O)CN(C(=O)CN(CCCCN)C(=O)CN(CC(C)C)C(=O)CNCCCCN)[C@H](C)c1ccccc1)C(=O)N[C@@H](CSC1CC(=O)N(c2ccc3c(c2)C(=O)OC32c3ccc(O)cc3Oc3cc(O)ccc32)C1=O)C(N)=O)CC(C)C)Cc1ccc2c(c1)OCO2)[C@H](C)c1ccccc1)C(=O)CNCCCCN (stereo partly drawn) [GU40C4] (I: H-[Nlys][Nleu][Nlys][Nrpe][Gly(N-piperonyl)][Nlys][Nleu][Nlys][Nlys][Ahx][βAla]KC(Fluorescein(5-Mal))-NH2 / II: H-[Nlys][Nleu][Nlys][Nrpe][Gly(N-piperonyl)][Nlys][Nleu][Nlys][Nlys]; amide I:12-II:C),IC50,"HUVEC [1]; 4 days, read-out: IC50 of VEGF-induced HUVEC proliferation",~1000 nM
same,inhibition of HUVEC proliferation (in words),HUVEC [1]; 1 μM,halfway
same,inhibition of HUVEC proliferation (in words),HUVEC [1]; 10 μM,reduced to essentially basal levels; also recorded: almost to the basal level
same,effect on VEGF-induced HUVEC tube formation,HUVEC [2]; 1 μM and 10 μM,Clear evidence of the inhibition of tube formation; also recorded: able to disrupt HUVEC tube formation; also recorded: disrupted HUVEC tube formation
same,adverse effects of treatment,[3],no adverse effects
same,time after cessation of therapy until tumors grow at a rate similar to control,[3],3 to 4 days
same,tumor necrosis (H&E histology),[3],induced significant tumor necrosis
same,tumor size,[3],approximately 200 mm^3
same,binding signal on PAE/KDR cells with competitor,VEGFR2 [4]; 100-fold excess unlabeled GU40C4,disappeared completely
same,binding to cells with or without native VEGFR2,VEGFR2 [4],did not associate detectably with cells that lacked VEGFR2
same,binding to cells with or without native VEGFR2,VEGFR2 [4]; listed as CU40C4,red halo was observed only when the peptoid was incubated with the MCF-7 cells
same,binding to PAE parental cells,VEGFR2 [4]; cells lacking the VEGFR2 expression vector,did not bind detectably
same,improvement of antagonism over the monomeric parent compound,VEGFR2 [5],100- to 500 fold
"CC(C)CN(CC(=O)N(CCCCN)CC(=O)N(CC(=O)N(CC(=O)N(CCCCN)CC(=O)N(CC(=O)N(CCCCN)CC(=O)N(CCCCN)CC(=O)O)CC(C)C)Cc1ccc2c(c1)OCO2)C(C)c1ccccc1)C(=O)CNCCCCN (stereo not drawn) [GU40C, Nlys-Nleu-Nlys-Nmba-Npip-Nlys-Nleu-Nlys-Nlys] (H-[Nlys][Nleu][Nlys][X1][Gly(N-piperonyl)][Nlys][Nleu][Nlys][Nlys]-OH)",binding to CD105,CD105,did not bind detectably
same,binding to GST,GST,did not bind detectably
same,effect on VEGF-induced HUVEC tube formation,HUVEC [2]; 10 μM,slight effect; also recorded: small effect
same,competition with fluoresceinated GU40C for binding to VEGFR2 ECD,VEGFR2 ECD,competed efficiently
same,agonist activity on VEGFR2 phosphorylation,"VEGFR2 [5]; PAE/KDR cells, Western blot",Neither peptoid at any concentration tested evinced agonist activity; also recorded: None of the peptoids exhibited agonist activity
same,effect on VEGF-induced VEGFR2 phosphorylation (in words),"VEGFR2 [5]; monomeric peptoids, 500 μM, 1.3 nM VEGF",weak antagonists
same,inhibition of VEGFR2 phosphorylation,"VEGFR2 [5]; peptoid 500 μM, 1.3 nM VEGF, PAE/KDR cells",approximately 75%
same,Kd,"VEGFR2 [6]; immobilized VEGFR2 extracellular domain, read-out: KD",2850 ± 400 nM
same,Kd,VEGFR2 [6]; read-out: dissociation constant (KD),~2000 nM
same,binding to VEGFR2 ECD (in words),VEGFR2 [6]; ELISA-like binding assay,able to display binding
same,binding after pre-incubation of immobilized receptor with unlabeled VEGF,VEGFR2 [6]; fluoresceinated peptoid,almost no binding

# — US8334239B2, “High affinity VEGF-receptor antagonists” (The Board of Regents of the University of Texas System, priority 2007, dated 2012)
